The results in this text go back to patent US20250115576A1, “THERAPEUTIC COMPOUNDS AND METHODS OF USE THEREOF” (Genentech, Inc., priority 2018, published 2025).

Counter-ions that a name gives are not always drawn.

hNav1.7, sequence (Q15858 other isoform, or with tags, fused parts or gaps): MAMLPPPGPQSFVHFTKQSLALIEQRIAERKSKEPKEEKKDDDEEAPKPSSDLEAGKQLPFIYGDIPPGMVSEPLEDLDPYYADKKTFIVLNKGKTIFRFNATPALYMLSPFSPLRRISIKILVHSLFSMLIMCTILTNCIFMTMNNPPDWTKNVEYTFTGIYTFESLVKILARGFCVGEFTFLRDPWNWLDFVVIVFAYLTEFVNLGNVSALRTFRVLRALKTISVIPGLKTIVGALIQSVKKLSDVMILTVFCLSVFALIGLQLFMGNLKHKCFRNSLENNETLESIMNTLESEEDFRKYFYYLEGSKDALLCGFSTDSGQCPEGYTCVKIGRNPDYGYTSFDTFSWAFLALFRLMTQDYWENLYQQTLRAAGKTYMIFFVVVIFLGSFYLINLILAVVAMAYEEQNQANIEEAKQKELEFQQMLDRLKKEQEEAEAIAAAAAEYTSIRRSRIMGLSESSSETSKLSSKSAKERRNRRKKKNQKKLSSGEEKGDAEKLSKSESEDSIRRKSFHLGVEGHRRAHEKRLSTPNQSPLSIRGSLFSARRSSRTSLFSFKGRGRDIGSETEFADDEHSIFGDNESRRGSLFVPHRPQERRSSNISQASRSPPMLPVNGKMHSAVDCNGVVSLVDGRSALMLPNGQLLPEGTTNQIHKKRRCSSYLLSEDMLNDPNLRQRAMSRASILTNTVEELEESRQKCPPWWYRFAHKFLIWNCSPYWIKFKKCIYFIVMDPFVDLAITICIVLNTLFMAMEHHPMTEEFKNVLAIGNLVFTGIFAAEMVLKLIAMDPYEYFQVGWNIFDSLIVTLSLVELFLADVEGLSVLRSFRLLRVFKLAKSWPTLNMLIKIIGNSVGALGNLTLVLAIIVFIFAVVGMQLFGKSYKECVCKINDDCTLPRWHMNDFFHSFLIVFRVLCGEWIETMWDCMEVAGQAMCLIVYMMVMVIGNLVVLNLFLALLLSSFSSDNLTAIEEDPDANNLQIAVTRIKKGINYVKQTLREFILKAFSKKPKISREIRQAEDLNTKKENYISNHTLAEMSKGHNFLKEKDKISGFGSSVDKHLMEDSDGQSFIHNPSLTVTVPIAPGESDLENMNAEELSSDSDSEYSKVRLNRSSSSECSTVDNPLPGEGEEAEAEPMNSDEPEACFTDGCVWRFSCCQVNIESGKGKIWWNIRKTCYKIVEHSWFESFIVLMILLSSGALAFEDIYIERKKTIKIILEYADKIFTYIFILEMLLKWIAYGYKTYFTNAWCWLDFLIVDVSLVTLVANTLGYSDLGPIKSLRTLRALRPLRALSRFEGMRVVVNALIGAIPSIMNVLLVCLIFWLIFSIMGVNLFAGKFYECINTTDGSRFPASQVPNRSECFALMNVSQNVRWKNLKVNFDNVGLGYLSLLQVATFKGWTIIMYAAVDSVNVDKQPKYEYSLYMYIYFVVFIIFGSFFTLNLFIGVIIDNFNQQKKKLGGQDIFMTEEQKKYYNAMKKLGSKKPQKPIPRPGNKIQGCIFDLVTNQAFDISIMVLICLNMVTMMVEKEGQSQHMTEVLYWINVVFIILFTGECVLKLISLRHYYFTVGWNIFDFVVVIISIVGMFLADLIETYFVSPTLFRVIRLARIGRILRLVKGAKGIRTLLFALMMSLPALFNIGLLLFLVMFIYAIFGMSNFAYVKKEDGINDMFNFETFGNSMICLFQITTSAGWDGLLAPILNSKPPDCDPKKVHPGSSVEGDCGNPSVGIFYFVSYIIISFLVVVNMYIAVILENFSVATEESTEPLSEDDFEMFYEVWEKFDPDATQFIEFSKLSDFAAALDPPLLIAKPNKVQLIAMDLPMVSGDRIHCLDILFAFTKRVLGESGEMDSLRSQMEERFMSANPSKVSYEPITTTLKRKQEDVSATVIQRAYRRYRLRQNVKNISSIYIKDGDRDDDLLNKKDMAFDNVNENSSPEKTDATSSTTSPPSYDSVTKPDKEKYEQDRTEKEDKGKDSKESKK

This experiment addresses hNav1.7 (Homo sapiens (Human), UniProt Q15858). The experiment in a line: Patch voltage clamp electrophysiology (EP), Syncropatch 384PE, CHO cells stably expressing Nav1.7. In kind it is cell-based. The note with it: holding potential −50 mV, 7.5 min compound incubation, read-out: EP_SP hNav1.7 EVO IC50. An excerpt: Example 64c. Electrophysiological Assay (EP) (In Vitro Assay)
Patch voltage clamp electrophysiology allows for the direct measurement and quantification of block of voltage-gated sodium channels (NaV's), and allows the determination of the time- and voltage-dependence of block which has been interpreted as differential binding to the resting, open, and inactivated states of the sodium channel (Hille, B., Journal of General Physiology (1977), 69: 497-515).
The following voltage clamp electrophysiology studies are performed on representative compounds using cells heterologously expressing Nav1.7 or Nav1.5 channels. cDNAs for Nav1.7 (NM_002977) and Nav1.5 (AC137587) are stably expressed in Chinese Hamstr Ovary (CHO) cells and CHL (Chinese Hamster Lung) cells respectively. Sodium currents are measured in the whole-cell configuration using Syncropatch 384PE (Nanlon Technologies, Germany). 1NPC®-384 chips with custom medium resistance and single hole mode are used. Internal solution consists of (in mM): […], 10 CsCl, 20 EGTA, and 10 Hepes (pH adjusted to 7.2); and external solution contains (in mM): 60 NMDG, 80 NaCl, 4 KCl, 1 MgCl2, 2 CaCl2, 2 D-Glucose monohydrate, 10 Hepes (pH adjusted to 7.4 with NaOH).
After system flushing, testing compounds are dissolved in external solution containing 0.1% Pluronic F-127. The chip is moved into the measuring head and the instrument primes the chip with external and internal solutions. 10 μl cells are added to the chip from a cell hotel, and a negative pressure of −50 mBar is applied to form a seal. Following treatment with seal enhancer solution and wash-off with external solution, negative pressure of −250 mbar is applied for 1 second to achieve the whole-cell configuration, followed by three washing steps in external solution. 20 μl of compounds is added to 40 μl in each well (1:3 dilution of compounds), and after mixing, 20 μl is removed so the volume is retained at 40 ul. After approximately 13 minutes recordings, 20 μl/well of 2 uM TTX, or 333 uM Tetracaine (for […]) is added to achieve full block.
For voltage protocol, an holding potential of −50 mV is applied during the whole experiment. A depolarizing step is applied to −10 mV for 10 ms, followed by a hyperpolarization step to −150 mV for 20 ms to allow channel recovery from inactivation. A second depolarizing step is applied from −150 mV to −10 mV for 10 ms, where currents are measured to derive blocking effects of compounds. Inhibition is determined based on 7.5 min of compound incubation.
For the compound `Cc1ccc(C(F)(F)F)cc1[C@H]1CC[C@H](Oc2ccc(S(=O)(=O)Nc3ccncn3)c(C)n2)[C@@H](N(C)C)C1` [Example 54, 6-(((1S,2S,4S)-2-(dimethyl-amino)-4-(2-methyl-5-(trifluoromethyl)phenyl)-cyclohexyl)oxy)-2-methyl-N-(pyrimidin-4-yl)pyridine-3-sulfonamide], the concentration for half-maximal inhibition (IC50) was found to be 0.404 nM.

With `Cc1nc(O[C@H]2CC[C@H](c3cc(Cl)cc(C(F)(F)F)c3)C[C@@H]2N(C)C)ccc1S(=O)(=O)Nc1ccncn1` [Example 49, 6-(((1S,2S,4S)-4-(3-chloro-5-(trifluoromethyl)phenyl)-2-(dimethylamino)cyclohexyl)oxy)-2-methyl-N-(pyrimidin-4-yl)pyridine-3-sulfonamide], the IC50 is 0.188 nM. On to `CN(C)[C@H]1C[C@@H](c2cccc(OC(F)(F)F)c2)CC[C@@H]1Oc1ccc(S(=O)(=O)Nc2ccncn2)cn1` [Example 25, 6-(((1S,2S,4S)-2-(dimethylamino)-4-(3-(trifluoromethoxy)phenyl)cyclohexyl)oxy)-N-(pyrimidin-4-yl)pyridine-3-sulfonamide formate], for which the 50% inhibitory concentration (IC50) was found to be 3.51 nM. In the case of `Cc1ccc([C@H]2CC[C@H](Oc3ccc(S(=O)(=O)Nc4ccncn4)c(C)n3)[C@@H](N(C)C)C2)cc1C(F)(F)F` [Example 56, 6-(((1S,2S,4S)-2-(dimethyl-amino)-4-(4-methyl-3-(trifluoromethyl)phenyl)-cyclohexyl)oxy)-2-methyl-N-(pyrimidin-4-yl)pyridine-3-sulfonamide formate], the IC50 amounted to 0.13 nM. Then `O=S(=O)(Nc1ccncn1)c1cnc(O[C@H]2CC[C@H](c3cccc(C(F)(F)F)c3)C[C@@H]2N2CCCCC2)c(Cl)c1` [Example 19, 5-chloro-6-(((1S,2S,4S)-2-(piperidin-1-yl)-4-(3-(trifluoromethyl)phenyl)cyclohexyl)oxy)-N-(pyrimidin-4-yl)pyridine-3-sulfonamide], with 0.281 nM; and `Cc1cc(O[C@H]2CC[C@H](c3cccc(C(F)(F)F)c3)C[C@@H]2N(C)C)ncc1S(=O)(=O)Nc1ccncn1` [Example 32, 6-(((1S,2S,4S)-2-(Dimethylamino)-4-(3-(trifluoromethyl)phenyl)cyclohexyl)oxy)-4-methyl-N-(pyrimidin-4-yl)pyridine-3-sulfonamide], with 37.1 nM.

Regarding `CN(C)[C@H]1C[C@@H](c2cccc(C(F)(F)F)c2)CC[C@@H]1Oc1ccc(S(=O)(=O)Nc2ccncn2)c(C2CC2)n1` [Example 34, 2-Cyclopropyl-6-(((1S,2S,4S)-2-(dimethylamino)-4-(3-(trifluoromethyl)phenyl)-cyclohexyl)oxy)-N-(pyrimidin-4-yl)pyridine-3-sulfonamide], the IC50 came to 154 nM. Then `CN(C)[C@H]1C[C@@H](c2cccc(C(F)(F)F)c2)CC[C@@H]1Oc1ncc(S(=O)(=O)Nc2ccncn2)cc1C1CC1` [Example 7, 5-Cyclopropyl-6-(((1S,2S,4S)-2-(dimethylamino)-4-(3-(trifluoromethyl)phenyl)cyclohexyl)oxy)-N-(pyrimidin-4-yl)pyridine-3-sulfonamide formate], with 1.16 nM.

As to `CCc1nc(O[C@H]2CC[C@H](c3cccc(C(F)(F)F)c3)C[C@@H]2N(C)C)ccc1S(=O)(=O)Nc1ccncn1` [Example 33, 6-(((1S,2S,4S)-2-(Dimethylamino)-4-(3-(trifluoromethyl)phenyl)cyclohexyl)oxy)-2-ethyl-N-(pyrimidin-4-yl)pyridine-3-sulfonamide], the IC50 was 16.3 nM. Then `Cc1nc(O[C@H]2CC[C@H](c3cccc(C(F)(F)F)c3)C[C@@H]2N(C)C)c(F)cc1S(=O)(=O)Nc1ccncn1` [Example 53, 6-(((1S,2S,4S)-2-(Dimethylamino)-4-(3-(trifluoromethyl)phenyl)cyclohexyl)oxy)-5-fluoro-2-methyl-N-(pyrimidin-4-yl)pyridine-3-sulfonamide formate], with 0.989 nM.
